According to publication PMC4819940 (Cancer Chemotherapy and Pharmacology, 2016):
Like-named read-outs stand apart in the source and are kept apart here.

System: Japanese patients with advanced solid malignancies
Description: This was a phase 1, open-label, multicenter, dose escalation study. […] All doses were required to be taken in a fasted state (no caloric intake from 2 h before dosing to 1 h after dosing).
All evaluations during the bid dosing regimen were conducted in 21-day assessment cycles. Patients were enrolled to ensure a minimum of three and a maximum of six evaluable patients per cohort. Dose escalation and de-escalation were determined by the number of dose-limiting toxicities (DLTs; defined as any toxicity related to study drug as assessed by the investigator and not attributable to the disease under investigation) in a cohort. […] If one patient in a group of […] evaluable patients experienced a DLT, the cohort was expanded to include six evaluable patients. […] If ≥2 patients in a group of up to six evaluable patients experienced a DLT, irrespective of the number of patients enrolled, the dose was considered not tolerated and recruitment to the cohort and dose escalation was ceased. De-escalation to a lower intermediary dose could be considered in order to better define the MTD.
Based on emerging clinical data from the continuous dosing regimen of this study and data from the Western Study 1 (D3610C00001, NCT01226316), which was running in parallel with the Japanese study, an intermittent dosing regimen was also evaluated in Japanese patients and with a starting dose of 480 mg bid and a 4/3 dosing schedule.
Safety and tolerability were assessed in terms of adverse events (AEs), serious adverse events (SAEs), deaths, laboratory data, vital signs, electrocardiogram (ECG), assessment of glucose metabolism, and physical examination. AEs were graded according to the Common Terminology Criteria for Adverse Events (CTCAE) version 4.0. Any AE occurring after the first dose of study treatment and within 30 days of the last dose of study treatment was included in the AE summaries.

## NC1(C(=O)N[C@@H](CCO)c2ccc(Cl)cc2)CCN(c2ncnc3[nH]ccc23)CC1 [AZD5363]
80 mg bid continuous, n=3
  AE with outcome of death: Any: 0 (0.0) number (%) of patients
240 mg bid continuous, n=7
  AE with outcome of death: Any: 0 (0.0) number (%) of patients
320 mg bid continuous, n=6
  AE with outcome of death: Any: 0 (0.0) number (%) of patients
360 mg bid intermittent 4/3, n=8
  AE with outcome of death: Any: 0 (0.0) number (%) of patients
400 mg bid continuous, n=5
  AE with outcome of death: Any: 0 (0.0) number (%) of patients
480 mg bid intermittent 4/3, n=6
  AE with outcome of death: Any: 0 (0.0) number (%) of patients
640 mg bid intermittent 2/5, n=6
  AE with outcome of death: Any: 0 (0.0) number (%) of patients
Total, n=41
  AE with outcome of death: Any: 0 (0.0) number (%) of patients
Either of the intermittent dosing schedules
  MTD: not reached
human, in vivo
  AEs of CTCAE grade ≥3: Any: 26 (63.4) number (%) of patients
  AEs of CTCAE grade ≥3: Diarrhea: 7 (17.1) number (%) of patients
  AEs of CTCAE grade ≥3: Hyperglycemia: 16 (39.0) number (%) of patients
  AEs of CTCAE grade ≥3: Lymphocyte count decreased: 3 (7.3) number (%) of patients
  AEs of CTCAE grade ≥3: Neutrophil count decreased: 4 (9.8) number (%) of patients
  AEs: Blood creatinine increased: 14 (34.1) number (%) of patients
  AEs: Decreased appetite: 20 (48.8) number (%) of patients
  AEs: Diarrhea: 32 (78.0) number (%) of patients
  AEs: Hyperglycemia: 28 (68.3) number (%) of patients
  AEs: Maculopapular rash: 23 (56.1) number (%) of patients
  AEs: Nausea: 23 (56.1) number (%) of patients
  AEs: Proteinuria: 16 (39.0) number (%) of patients
  AEs: Pyrexia: 20 (48.8) number (%) of patients
  AEs: Stomatitis: 17 (41.5) number (%) of patients
  AEs: White blood cell count decreased: 13 (31.7) number (%) of patients
  Adverse events (AEs): Any: 40 (97.6) number (%) of patients
  SAE: Any: 3 (7.3) number (%) of patients
  patients who experienced an AE of CTCAE grade ≥3: 63.4%
  patients who experienced at least one AE: 97.6%
  patients with AE diarrhea: 78.0%
  patients with AE hyperglycemia: 68.3%
  patients with AE maculopapular rash: 56.1%
  patients with AE nausea: 56.1%
  patients with AEs leading to dose interruption: 39.0%
  patients with CTCAE grade ≥3 diarrhea: 17.1%
  patients with CTCAE grade ≥3 hyperglycemia: 39.0%
  patients with a grade ≥3 AE considered to be treatment related: 58.5%
  patients with discontinuation due to an AE: 12.2%
In vivo
  DLTs reported: No DLTs
  patients who experienced DLTs: five
  patients who experienced an SAE: Three
overall, all cohorts
  deaths related to AEs: no deaths
